The NIST ThermoML archive (doi:10.1016/j.jct.2005.09.003)

Experiment: xn = mol fraction of the nth substance listed
Conditions: Liquid

CCCCCCCl [1-chlorohexane] + CCCCCCCC
mass density [kg/m3]
Conditions | x2 = 0 | x2 = 0.1016 | x2 = 0.1996 | x2 = 0.3153 | x2 = 0.3948 | x2 = 0.4862 | x2 = 0.5938 | x2 = 0.6966 | x2 = 0.794 | x2 = 0.9001
298.15 K, 100 kPa | 873.42 | 852.6 | 833.25 | 811.26 | 796.69 | 780.47 | 762.03 | 745.09 | 729.61 | 713.36
298.15 K, 2130 kPa | 874.73 | 854.08 | 834.69 | 812.8 | 798.13 | 781.96 | 763.56 | 746.66 | 731.16 | 714.88
298.15 K, 4150 kPa | 876.45 | 855.81 | 836.43 | 814.54 | 799.88 | 783.71 | 765.29 | 748.4 | 732.88 | 716.61
298.15 K, 6180 kPa | 878.31 | 857.67 | 838.25 | 816.37 | 801.68 | 785.49 | 767.08 | 750.15 | 734.61 | 718.33
298.15 K, 8210 kPa | 879.79 | 859.18 | 839.81 | 817.9 | 803.24 | 787.05 | 768.66 | 751.72 | 736.21 | 719.94
298.15 K, 10230 kPa | 881.44 | 860.8 | 841.43 | 819.53 | 804.88 | 788.69 | 770.3 | 753.38 | 737.85 | 721.55
298.15 K, 11250 kPa | 882.22 | 861.6 | 842.23 | 820.34 | 805.7 | 789.48 | 771.11 | 754.16 | 738.66 | 722.34
298.15 K, 12260 kPa | 883.01 | 862.42 | 843.03 | 821.13 | 806.5 | 790.3 | 771.9 | 754.95 | 739.44 | 723.13
298.15 K, 14290 kPa | 884.61 | 864.01 | 844.63 | 822.72 | 808.08 | 791.9 | 773.49 | 756.55 | 741 | 724.69
298.15 K, 16310 kPa | 886.16 | 865.53 | 846.17 | 824.27 | 809.62 | 793.43 | 775.01 | 758.05 | 742.51 | 726.2
298.15 K, 18340 kPa | 887.68 | 867.07 | 847.69 | 825.8 | 811.15 | 794.94 | 776.55 | 759.59 | 744.03 | 727.69
298.15 K, 20370 kPa | 889.18 | 868.58 | 849.18 | 827.29 | 812.64 | 796.42 | 778.03 | 761.06 | 745.51 | 729.16
298.15 K, 22390 kPa | 890.65 | 870.05 | 850.64 | 828.77 | 814.1 | 797.89 | 779.48 | 762.51 | 746.97 | 730.59
298.15 K, 24420 kPa | 892.14 | 871.52 | 852.13 | 830.22 | 815.56 | 799.35 | 780.91 | 763.95 | 748.37 | 732.01
298.15 K, 26450 kPa | 893.54 | 872.95 | 853.55 | 831.64 | 816.97 | 800.75 | 782.33 | 765.32 | 749.76 | 733.39
298.15 K, 28470 kPa | 894.96 | 874.35 | 854.96 | 833.04 | 818.37 | 802.14 | 783.71 | 766.73 | 751.13 | 734.74
298.15 K, 29490 kPa | 895.65 | 875.05 | 855.64 | 833.73 | 819.06 | 802.85 | 784.39 | 767.4 | 751.81 | 735.41
298.15 K, 30500 kPa | 896.32 | 875.72 | 856.33 | 834.42 | 819.73 | 803.52 | 785.07 | 768.07 | 752.47 | 736.07
298.15 K, 32530 kPa | 897.71 | 877.11 | 857.7 | 835.79 | 821.11 | 804.86 | 786.42 | 769.4 | 753.8 | 737.38
298.15 K, 34550 kPa | 899.05 | 878.46 | 859.03 | 837.12 | 822.43 | 806.19 | 787.72 | 770.72 | 755.08 | 738.69
298.15 K, 36580 kPa | 900.38 | 879.77 | 860.35 | 838.43 | 823.74 | 807.48 | 789.01 | 772.01 | 756.36 | 739.94
298.15 K, 38600 kPa | 901.69 | 881.06 | 861.67 | 839.72 | 825.03 | 808.77 | 790.32 | 773.27 | 757.63 | 741.21
298.15 K, 39620 kPa | 902.33 | 881.71 | 862.31 | 840.38 | 825.68 | 809.4 | 790.96 | 773.9 | 758.25 | 741.83
308.15 K, 100 kPa | 863.99 | 843.29 | 824.06 | 802.22 | 787.75 | 771.63 | 753.33 | 736.52 | 721.15 | 705.03
308.15 K, 2130 kPa | 865.56 | 845 | 825.77 | 803.94 | 789.46 | 773.39 | 755.1 | 738.36 | 722.94 | 706.75
308.15 K, 4150 kPa | 867.35 | 846.81 | 827.59 | 805.76 | 791.31 | 775.22 | 756.95 | 740.19 | 724.76 | 708.57
308.15 K, 6180 kPa | 869.15 | 848.61 | 829.39 | 807.57 | 793.1 | 777.03 | 758.74 | 742 | 726.58 | 710.37
308.15 K, 8210 kPa | 870.9 | 850.37 | 831.16 | 809.34 | 794.85 | 778.81 | 760.51 | 743.77 | 728.34 | 712.11
308.15 K, 10230 kPa | 872.61 | 852.08 | 832.88 | 811.05 | 796.6 | 780.52 | 762.22 | 745.47 | 730.04 | 713.8
308.15 K, 11250 kPa | 873.47 | 852.95 | 833.74 | 811.91 | 797.46 | 781.38 | 763.1 | 746.33 | 730.91 | 714.66
308.15 K, 12260 kPa | 874.3 | 853.78 | 834.58 | 812.74 | 798.31 | 782.22 | 763.93 | 747.17 | 731.72 | 715.48
308.15 K, 14290 kPa | 875.96 | 855.47 | 836.25 | 814.43 | 799.98 | 783.88 | 765.62 | 748.84 | 733.37 | 717.14
308.15 K, 16310 kPa | 877.59 | 857.09 | 837.88 | 816.06 | 801.61 | 785.51 | 767.22 | 750.45 | 735 | 718.74
308.15 K, 18340 kPa | 879.2 | 858.68 | 839.49 | 817.66 | 803.22 | 787.12 | 768.81 | 752.06 | 736.58 | 720.34
308.15 K, 20370 kPa | 880.78 | 860.28 | 841.08 | 819.25 | 804.79 | 788.69 | 770.37 | 753.6 | 738.13 | 721.86
308.15 K, 22390 kPa | 882.35 | 861.81 | 842.63 | 820.79 | 806.33 | 790.24 | 771.9 | 755.13 | 739.65 | 723.39
308.15 K, 24420 kPa | 883.86 | 863.33 | 844.15 | 822.3 | 807.85 | 791.75 | 773.44 | 756.65 | 741.13 | 724.85
308.15 K, 26450 kPa | 885.35 | 864.85 | 845.66 | 823.79 | 809.33 | 793.23 | 774.9 | 758.1 | 742.61 | 726.31
308.15 K, 28470 kPa | 886.84 | 866.32 | 847.13 | 825.28 | 810.81 | 794.7 | 776.37 | 759.57 | 744.06 | 727.75
308.15 K, 29490 kPa | 887.56 | 867.04 | 847.84 | 825.98 | 811.52 | 795.4 | 777.07 | 760.27 | 744.75 | 728.43
308.15 K, 30500 kPa | 888.21 | 867.77 | 848.57 | 826.72 | 812.26 | 796.13 | 777.79 | 760.96 | 745.47 | 729.14
308.15 K, 32530 kPa | 889.73 | 869.2 | 850.02 | 828.15 | 813.68 | 797.54 | 779.17 | 762.38 | 746.85 | 730.54
308.15 K, 34550 kPa | 891.14 | 870.61 | 851.41 | 829.56 | 815.08 | 798.95 | 780.59 | 763.77 | 748.23 | 731.86
308.15 K, 36580 kPa | 892.52 | 872.01 | 852.79 | 830.94 | 816.46 | 800.32 | 781.95 | 765.13 | 749.58 | 733.19
308.15 K, 38600 kPa | 893.9 | 873.39 | 854.16 | 832.28 | 817.83 | 801.66 | 783.3 | 766.43 | 750.88 | 734.53
308.15 K, 39620 kPa | 894.55 | 874.04 | 854.82 | 832.94 | 818.49 | 802.33 | 783.95 | 767.08 | 751.54 | –
